Measured values as given in ChEMBL document CHEMBL1201862, “PubChem BioAssay data set” (2004).
The source made the active and inactive calls.

What was measured:
[1] = Artemis endonuclease inhibitor potency, dose response, biochemical, fluorescence intensity (AID 720701); assay type: functional;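 note: Artemis endonuclease enzyme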
[2] = molecular target: T1, Heat shock factor protein 1 (Mus musculus, UniProt P38532); assay: HSF1 potentiators in luciferase reporter cells, confirmation, cell-based, NIH3T3, luminescence, dose retest (AID 435004); assay type: functional;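 note: stress induced by proteasome inhibitor MG132 added 30 min after compound; luciferase reporter driven by HSF1 response element in NIH3T3 cells; actives raise luminescence as potentiators of the MG132 stress response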
T1 sequence (P38532 whole entry): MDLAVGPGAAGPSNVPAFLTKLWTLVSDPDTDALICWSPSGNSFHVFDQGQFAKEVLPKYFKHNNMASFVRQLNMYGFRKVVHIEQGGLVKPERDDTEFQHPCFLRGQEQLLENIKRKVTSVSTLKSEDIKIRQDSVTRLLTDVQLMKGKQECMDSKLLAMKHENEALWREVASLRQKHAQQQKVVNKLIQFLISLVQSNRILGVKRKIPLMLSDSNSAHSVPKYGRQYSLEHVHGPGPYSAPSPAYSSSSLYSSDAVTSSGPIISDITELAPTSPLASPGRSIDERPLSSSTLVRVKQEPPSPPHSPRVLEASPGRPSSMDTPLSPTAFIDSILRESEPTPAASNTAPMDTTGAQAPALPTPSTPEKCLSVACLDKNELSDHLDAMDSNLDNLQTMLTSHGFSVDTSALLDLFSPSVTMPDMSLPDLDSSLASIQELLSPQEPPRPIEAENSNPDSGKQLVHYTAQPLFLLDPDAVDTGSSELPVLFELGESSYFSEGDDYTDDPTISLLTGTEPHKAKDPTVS

Streptococcus = assay: Group A Streptococcus viability loss, dose response, counter-screen for streptokinase expression inhibitor project, luminescence, BacTiterGlo (AID 1915); assay type: functional, organism-based;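 note: potency for reduction of bacterial viability or growth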
Ephrin type-A receptor 4 = Ephrin type-A receptor 4 (Mus musculus, UniProt Q03137); assay: inhibitors of EphA4 binding to KYL peptide, primary screen, biochemical, colorimetric, mouse EphA4 (AID 689); assay type: functional
Streptokinase A = molecular target: T2, Streptokinase A (Streptococcus pyogenes serotype M1, UniProt P10520); assay: S. pyogenes streptokinase expression inhibitors, potency, dose response, plasminogen activation absorbance, OD405 (AID 1914); assay type: functional, Streptococcus pyogenes M1 GAS;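 note: secreted streptokinase activity via plasminogen activation per viability signal from cell pellet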
T2 sequence (P10520 whole entry): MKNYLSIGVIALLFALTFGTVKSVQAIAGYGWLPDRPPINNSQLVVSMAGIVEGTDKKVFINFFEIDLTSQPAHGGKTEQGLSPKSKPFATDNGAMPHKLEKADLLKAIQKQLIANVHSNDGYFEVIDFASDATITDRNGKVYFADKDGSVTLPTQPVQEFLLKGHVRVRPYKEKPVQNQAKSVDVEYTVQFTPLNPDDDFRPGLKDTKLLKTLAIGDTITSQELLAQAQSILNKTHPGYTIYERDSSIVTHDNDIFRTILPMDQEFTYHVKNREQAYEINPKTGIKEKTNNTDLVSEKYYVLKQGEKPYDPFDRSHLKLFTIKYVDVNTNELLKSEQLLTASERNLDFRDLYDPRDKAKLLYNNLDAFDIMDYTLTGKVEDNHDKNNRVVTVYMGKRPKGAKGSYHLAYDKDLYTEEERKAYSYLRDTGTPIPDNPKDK

[3] = molecular target: Heat shock protein HSP 90-alpha (Homo sapiens, UniProt P07900); assay type: functional, organism-based
[4] = tested on: Streptococcus sp. 'group A'; assay: growth inhibition of control SK(-) GAS strain, dose response, counter-screen for streptokinase expression inhibitor project, luminescence, kanamycin, BacTiterGlo, confirmation (AID 1900); assay type: functional, organism-based
[5] = inhibitors of firefly luciferase expression or activity, dose response, H4 neuroglioma cells, luminescence (AID 1990); assay type: functional, cell-based
[6] = inhibitors of SNCA 5'UTR-driven reporter translation, confirmation, H4 neuroglioma cells, luminescence (AID 1988); assay type: functional, cell-based
[7] = Luminescence Cell-Based Dose Response HTS to Identify Inhibitors of 5'UTR Stem-Loop Driven Prion Protein mRNA Translation in H4 Neuroglioblastoma Cells. [Related pubchem assays: 1827 (Project Summary), 1813 (Primary HTS)]; assay type: functional
Vero = Vero cell cytotoxicity, cytotoxicity control for flavivirus capping enzyme inhibitors (AID 588742); assay type: functional; conditions: Chlorocebus sabaeus
Transthyretin = Transthyretin (Homo sapiens, UniProt P02766); assay: Luminescence-based cell-based high throughput dose response assay to identify activators of Transthyretin (TTR) transcription.; assay type: functional
[8] = Jurkat T cell cytotoxicity, dose response, cytotoxicity control for P. falciparum gametocyte viability project, luminescence (AID 1117277); assay type: functional, cell-based;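 note: potency reflects loss of cellular ATP meaning fewer viable cells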
[9] = P. falciparum late gametocyte killing, dose response, luminescence (AID 1117278); assay type: functional, cell-based;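 note: gametocytes exposed to compound for 24 hours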
[10] = half-maximal inhibitory concentration for glucagon-like peptide-1 release, STC-1 cell line, dose-response (AID 1117345); assay type: functional, cell-based
[11] = Glucagon-like peptide 1 release potency, NCI-H716 cell line, dose-response, half-maximal inhibitory concentration (AID 1117344); assay type: functional, cell-based
[12] = PAX2 cell-based inhibition, dose response, selectivity assay for PAX8 inhibitor project, plate reader, dry powder samples (AID 743048); assay type: functional;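 note: HEK293 cells carrying a WT1 promoter luciferase reporter driven by expressed Pax2; potency is for inhibition of Pax2 driven reporter signal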
[13] = cytotoxicity dependent on PAX8, dose response, cell-based, plate reader, dry powder (AID 743049); assay type: functional
Paired box protein Pax-8 = Paired box protein Pax-8 (Homo sapiens, UniProt Q06710); assay: inhibitors of PAX8-driven TPO luciferase reporter, dose response, RMG-I cells, cherry-pick (AID 687027); assay type: functional, cell-based;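 note: luciferase reporter driven by Pax8 target thyroperoxidase promoter measured by SteadyGlo luminescence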
[14] = PAX5 activity inhibitors, dose response, selectivity assay for PAX8 inhibitor project, cell-based, plate reader, dry powder samples (AID 743047); assay type: functional;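 note: HEK293 cells carrying a Pax5 driven CD19 promoter luciferase reporter; potency of inhibitors that lower reporter luminescence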
[15] = cytotoxicity in COV434 cells, dose response, cytotoxicity control for PAX8 inhibitor project, cell-based, plate reader, dry powder, SA7 (AID 743145); assay type: functional
[16] = NIH:OVCAR-3 ovarian cancer cell cytotoxicity, dose response, PAX8 inhibitor project, plate reader, dry powder samples (AID 743044); assay type: functional, cell-based
[17] = cytotoxicity in OV-90 ovarian cancer cells, dose response, PAX8 inhibitor project, cell-based, plate reader, dry powder, SA8 (AID 743149); assay type: functional
[18] = HEK293 cell viability, dose response, counter-screen for EBV LMP1 inhibitor project, dry powder, set 2 (AID 624374); assay type: functional
[19] = cytotoxicity in COV362 ovarian cancer cells, dose response, cytotoxicity control for PAX8 inhibitor project, cell-based, plate reader, dry powder, SA12 (AID 743144); assay type: functional
Large T antigen = Large T antigen (Simian virus 40, UniProt P03070); assay type: functional, Betapolyomavirus macacae;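 note: Confirmatory-stage PubChem screen for compounds that inhibit SV40 T antigen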
Caspase-6 = molecular target: T3, Caspase-6 (Homo sapiens, UniProt P55212); assay: human caspase-6 inhibitors, dose response, biochemical, VEID-R110 fluorescence, cherry-pick (AID 720632)
T3 sequence (P55212 whole entry): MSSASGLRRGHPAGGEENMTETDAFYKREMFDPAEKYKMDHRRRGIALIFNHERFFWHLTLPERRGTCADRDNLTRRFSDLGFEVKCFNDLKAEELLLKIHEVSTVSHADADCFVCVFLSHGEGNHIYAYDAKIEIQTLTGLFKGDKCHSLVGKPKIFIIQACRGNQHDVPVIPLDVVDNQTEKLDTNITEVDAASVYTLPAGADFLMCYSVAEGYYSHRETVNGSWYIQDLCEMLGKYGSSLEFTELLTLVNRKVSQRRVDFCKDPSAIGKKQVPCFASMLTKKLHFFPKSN

[20] = molecular target: T4, Histone-lysine N-methyltransferase NSD2 (Homo sapiens, UniProt O96028); assay type: biochemical
T4 sequence (O96028 whole entry): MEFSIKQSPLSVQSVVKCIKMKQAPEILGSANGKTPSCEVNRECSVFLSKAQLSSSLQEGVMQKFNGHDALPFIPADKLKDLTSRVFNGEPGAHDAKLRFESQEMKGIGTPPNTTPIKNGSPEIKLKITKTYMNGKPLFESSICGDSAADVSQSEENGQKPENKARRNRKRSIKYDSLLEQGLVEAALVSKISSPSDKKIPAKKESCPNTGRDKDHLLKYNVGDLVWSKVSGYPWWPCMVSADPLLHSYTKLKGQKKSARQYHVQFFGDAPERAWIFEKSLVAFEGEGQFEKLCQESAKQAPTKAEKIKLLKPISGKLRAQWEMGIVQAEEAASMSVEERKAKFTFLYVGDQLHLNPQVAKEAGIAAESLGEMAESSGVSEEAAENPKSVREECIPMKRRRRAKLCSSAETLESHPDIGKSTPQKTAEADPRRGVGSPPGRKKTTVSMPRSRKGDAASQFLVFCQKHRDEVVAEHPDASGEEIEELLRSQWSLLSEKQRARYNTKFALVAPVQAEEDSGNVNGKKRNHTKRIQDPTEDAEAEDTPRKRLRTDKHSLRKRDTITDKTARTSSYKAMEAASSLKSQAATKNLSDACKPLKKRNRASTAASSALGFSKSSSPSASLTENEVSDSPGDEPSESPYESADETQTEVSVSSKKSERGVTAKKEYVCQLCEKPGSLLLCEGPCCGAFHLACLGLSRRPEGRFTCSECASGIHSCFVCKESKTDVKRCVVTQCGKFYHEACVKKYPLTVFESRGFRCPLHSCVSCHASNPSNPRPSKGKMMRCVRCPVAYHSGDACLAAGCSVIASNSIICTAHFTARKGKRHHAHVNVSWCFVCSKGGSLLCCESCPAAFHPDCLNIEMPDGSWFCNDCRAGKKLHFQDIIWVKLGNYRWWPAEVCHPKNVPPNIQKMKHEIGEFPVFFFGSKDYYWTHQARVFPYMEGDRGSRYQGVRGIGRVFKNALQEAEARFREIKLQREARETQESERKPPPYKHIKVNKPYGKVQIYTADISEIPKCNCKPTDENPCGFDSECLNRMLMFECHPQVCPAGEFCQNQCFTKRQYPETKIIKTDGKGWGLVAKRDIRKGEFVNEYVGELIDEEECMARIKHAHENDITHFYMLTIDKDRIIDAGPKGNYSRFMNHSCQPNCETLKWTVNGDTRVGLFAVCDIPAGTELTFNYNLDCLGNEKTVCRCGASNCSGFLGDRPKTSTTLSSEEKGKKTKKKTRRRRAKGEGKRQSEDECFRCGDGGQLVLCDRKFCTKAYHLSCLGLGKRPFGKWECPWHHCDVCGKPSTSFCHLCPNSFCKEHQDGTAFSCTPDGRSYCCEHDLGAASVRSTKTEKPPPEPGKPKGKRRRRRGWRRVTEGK

[21] = molecular target: Bifunctional protein GlmU (Mycobacterium tuberculosis, UniProt P9WMN3); assay: Inhibitors of Mycobacterial Glucosamine-1-phosphate acetyl transferase (GlmU). Secondary screen.; design: species or system Mycobacterium tuberculosis H37Rv
Chain of Bifunctional protein GlmU (P9WMN3 whole entry): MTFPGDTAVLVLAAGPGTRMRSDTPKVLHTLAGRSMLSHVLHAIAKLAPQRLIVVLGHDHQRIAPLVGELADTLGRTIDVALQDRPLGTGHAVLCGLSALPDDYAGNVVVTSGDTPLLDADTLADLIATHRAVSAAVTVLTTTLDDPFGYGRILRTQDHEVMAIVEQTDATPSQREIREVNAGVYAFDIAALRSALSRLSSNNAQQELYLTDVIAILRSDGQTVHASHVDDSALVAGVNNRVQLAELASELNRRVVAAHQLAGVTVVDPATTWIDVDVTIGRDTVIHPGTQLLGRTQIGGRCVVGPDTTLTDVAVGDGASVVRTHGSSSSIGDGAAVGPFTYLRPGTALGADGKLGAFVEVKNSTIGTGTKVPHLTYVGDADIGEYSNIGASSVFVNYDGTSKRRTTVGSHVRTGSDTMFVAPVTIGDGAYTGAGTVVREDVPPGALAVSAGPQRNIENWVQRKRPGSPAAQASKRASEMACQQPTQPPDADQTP

Chain of Large T antigen (P03070 whole entry): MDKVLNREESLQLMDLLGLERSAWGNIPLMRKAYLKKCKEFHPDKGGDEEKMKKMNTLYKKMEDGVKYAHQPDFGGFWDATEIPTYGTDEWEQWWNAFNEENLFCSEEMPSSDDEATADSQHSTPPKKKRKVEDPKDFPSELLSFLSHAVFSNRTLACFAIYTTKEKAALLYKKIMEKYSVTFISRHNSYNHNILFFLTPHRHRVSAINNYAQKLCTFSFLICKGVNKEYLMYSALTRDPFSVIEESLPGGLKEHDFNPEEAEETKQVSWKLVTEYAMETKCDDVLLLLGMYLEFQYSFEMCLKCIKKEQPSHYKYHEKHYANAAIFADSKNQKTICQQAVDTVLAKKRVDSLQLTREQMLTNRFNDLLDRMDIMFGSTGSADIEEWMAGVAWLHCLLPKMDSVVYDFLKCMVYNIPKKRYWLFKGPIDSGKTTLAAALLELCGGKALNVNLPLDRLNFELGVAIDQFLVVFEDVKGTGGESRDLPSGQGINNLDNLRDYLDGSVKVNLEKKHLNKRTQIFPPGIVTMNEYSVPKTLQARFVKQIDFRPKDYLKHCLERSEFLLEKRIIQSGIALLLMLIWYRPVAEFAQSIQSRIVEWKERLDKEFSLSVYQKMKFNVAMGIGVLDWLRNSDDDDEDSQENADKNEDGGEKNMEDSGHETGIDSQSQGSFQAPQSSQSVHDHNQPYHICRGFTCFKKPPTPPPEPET
Chain of Paired box protein Pax-8 (Q06710 whole entry): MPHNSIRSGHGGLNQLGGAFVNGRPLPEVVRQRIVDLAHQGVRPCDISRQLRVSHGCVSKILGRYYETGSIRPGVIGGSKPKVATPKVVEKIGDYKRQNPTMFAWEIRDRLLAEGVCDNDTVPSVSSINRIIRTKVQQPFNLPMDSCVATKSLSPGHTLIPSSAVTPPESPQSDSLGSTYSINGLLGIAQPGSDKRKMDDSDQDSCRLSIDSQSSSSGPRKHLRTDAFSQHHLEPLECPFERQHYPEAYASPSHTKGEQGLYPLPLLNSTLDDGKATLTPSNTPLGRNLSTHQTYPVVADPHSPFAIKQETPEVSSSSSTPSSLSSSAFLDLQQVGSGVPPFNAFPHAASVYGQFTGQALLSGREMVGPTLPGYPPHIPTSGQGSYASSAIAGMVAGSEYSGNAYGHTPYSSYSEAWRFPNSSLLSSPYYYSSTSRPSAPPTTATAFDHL
Chain of Ephrin type-A receptor 4 (Q03137 whole entry): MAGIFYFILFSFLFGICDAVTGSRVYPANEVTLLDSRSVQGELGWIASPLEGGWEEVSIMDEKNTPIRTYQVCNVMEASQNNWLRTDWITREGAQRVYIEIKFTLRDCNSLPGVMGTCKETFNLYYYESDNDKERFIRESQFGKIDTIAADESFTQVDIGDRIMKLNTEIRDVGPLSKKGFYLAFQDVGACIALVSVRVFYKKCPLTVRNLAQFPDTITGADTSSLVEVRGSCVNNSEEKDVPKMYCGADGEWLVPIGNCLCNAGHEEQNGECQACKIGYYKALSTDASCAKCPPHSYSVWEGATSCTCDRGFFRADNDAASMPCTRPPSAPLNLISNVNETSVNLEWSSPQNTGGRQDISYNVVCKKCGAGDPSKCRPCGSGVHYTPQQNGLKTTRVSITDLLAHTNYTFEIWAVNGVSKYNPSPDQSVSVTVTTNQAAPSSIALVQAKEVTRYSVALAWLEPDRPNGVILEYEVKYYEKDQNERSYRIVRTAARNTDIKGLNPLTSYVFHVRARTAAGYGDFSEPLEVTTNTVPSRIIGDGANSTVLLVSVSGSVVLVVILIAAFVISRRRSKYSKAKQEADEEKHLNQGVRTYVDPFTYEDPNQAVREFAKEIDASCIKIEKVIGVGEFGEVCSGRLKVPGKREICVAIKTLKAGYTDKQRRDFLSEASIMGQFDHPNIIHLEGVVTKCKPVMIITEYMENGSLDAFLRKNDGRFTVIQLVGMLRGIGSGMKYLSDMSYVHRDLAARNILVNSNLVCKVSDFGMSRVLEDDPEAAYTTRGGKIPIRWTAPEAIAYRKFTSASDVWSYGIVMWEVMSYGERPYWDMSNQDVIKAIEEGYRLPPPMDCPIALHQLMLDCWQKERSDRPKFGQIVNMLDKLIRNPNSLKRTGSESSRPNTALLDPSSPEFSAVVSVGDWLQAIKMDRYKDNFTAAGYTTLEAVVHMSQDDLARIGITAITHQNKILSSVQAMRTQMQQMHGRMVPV

Structure (SMILES): O=C(/C=C/c1ccccc1)c1cc(Br)ccc(=O)c1O
- IC50 [1]: 19.1 µM (active)
- EC50 [2]: 15.9 µM (active)
- EC50 (Streptococcus): 7.42 µM (active)
- IC50 (Ephrin type-A receptor 4): 17.3 µM (active)
- EC50 (Streptokinase A): > 150 µM (not active)
- AC50 [3]: 3.01 µM (active)
- EC50 [4]: 1.95 µM (active)
- EC50 [5]: 11.6 µM (active)
- EC50 [6]: > 120 µM (not active)
- EC50 [7]: > 120 µM (not active)
- CC50 (Vero): 5.71 µM (active)

Structure (SMILES): Cn1ncc(Br)c1C(=O)N1CCc2ccccc21
- EC50 (Transthyretin): > 167 µM (inactive)

Structure (SMILES): c1ccc(CNC2=NCCS2)cc1
- IC50 [8]: > 83.2 µM (inactive)
- IC50 [9]: > 109 µM (inactive)

Structure (SMILES): Cc1cc(N)c2cc(NC(=O)Nc3ccc4nc(C)cc(N)c4c3)ccc2n1
- IC50 [10]: > 40 µM (inactive)
- IC50 [11]: 34.2 µM (inactive)

Structure (SMILES): C[C@@H]1CN([C@@H](C)CO)S(=O)(=O)c2ccc(C#Cc3ccncc3)cc2O[C@H]1CN(C)C(=O)Nc1ccc2c(c1)OCO2
- AC50 [12]: 22.7 µM (active)
- AC50 [13]: 13 µM (active)
- AC50 (Paired box protein Pax-8): 2.44 µM (active)
- AC50 [14]: 31.1 µM (active)
- AC50 [15]: 0.179 µM (active)
- AC50 [16]: 19.1 µM (active)
- AC50 [17]: 8.27 µM (active)
- AbsAC35 [18]: 39.06 µM
- AC50 [19]: 87.8 pM (active)

Structure (SMILES): Cc1c(Br)c(=O)oc2c(Br)c(O)c(O)cc12
- IC50 (Large T antigen): 41.2 µM (active)
- AC50 (Caspase-6): 19.5 µM (active)
- AC50 [20]: 10.3 µM (active)
- IC50 [21]: 55.4 µM (active)
